From patent publication US20210198277A1, “AMINE-SUBSTITUTED ARYL OR HETEROARYL COMPOUNDS” (Epizyme, Inc., priority 2016, published 2021)

Target: T1, EHMT2 (Homo sapiens, UniProt Q96KQ7)
T1 construct: host or cells: MDA-MB-231
T1 sequence (Q96KQ7 1-1210): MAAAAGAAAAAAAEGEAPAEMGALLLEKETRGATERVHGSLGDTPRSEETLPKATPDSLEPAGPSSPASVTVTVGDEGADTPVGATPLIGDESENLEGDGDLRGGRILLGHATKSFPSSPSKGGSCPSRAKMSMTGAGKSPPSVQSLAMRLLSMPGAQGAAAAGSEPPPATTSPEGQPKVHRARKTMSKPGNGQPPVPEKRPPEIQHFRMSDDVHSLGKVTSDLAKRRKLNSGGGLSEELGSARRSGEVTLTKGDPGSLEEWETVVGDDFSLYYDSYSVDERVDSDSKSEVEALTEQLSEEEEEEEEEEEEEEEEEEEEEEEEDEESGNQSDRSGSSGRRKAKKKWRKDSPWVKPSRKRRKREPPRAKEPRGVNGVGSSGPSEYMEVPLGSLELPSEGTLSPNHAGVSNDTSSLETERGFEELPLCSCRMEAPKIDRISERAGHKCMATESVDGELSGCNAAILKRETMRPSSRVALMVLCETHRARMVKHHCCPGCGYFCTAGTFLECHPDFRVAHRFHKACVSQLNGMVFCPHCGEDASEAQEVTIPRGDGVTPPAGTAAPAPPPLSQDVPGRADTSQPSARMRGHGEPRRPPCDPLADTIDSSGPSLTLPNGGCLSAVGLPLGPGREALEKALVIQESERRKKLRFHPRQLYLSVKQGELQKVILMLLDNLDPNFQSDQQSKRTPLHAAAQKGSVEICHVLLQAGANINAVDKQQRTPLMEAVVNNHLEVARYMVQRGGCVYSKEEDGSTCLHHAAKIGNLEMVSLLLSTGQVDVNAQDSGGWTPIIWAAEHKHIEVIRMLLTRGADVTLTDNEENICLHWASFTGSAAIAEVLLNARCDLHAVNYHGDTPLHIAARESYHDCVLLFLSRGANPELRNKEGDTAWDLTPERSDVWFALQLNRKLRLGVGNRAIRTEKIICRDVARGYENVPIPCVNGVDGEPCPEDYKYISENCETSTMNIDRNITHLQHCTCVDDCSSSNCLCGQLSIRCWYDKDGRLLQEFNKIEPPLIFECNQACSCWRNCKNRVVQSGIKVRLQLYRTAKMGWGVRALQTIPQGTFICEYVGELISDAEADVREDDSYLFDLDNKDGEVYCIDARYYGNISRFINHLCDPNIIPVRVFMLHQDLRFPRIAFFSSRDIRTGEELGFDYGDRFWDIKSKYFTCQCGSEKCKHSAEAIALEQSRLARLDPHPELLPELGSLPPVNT
Test: MDA-MB-231 H3K9me2 in-cell Western assay (EHMT2 ICW)
Assay type: cell-based
Conditions: Table III; MDA-MB-231 H3K9me2 in-cell Western; read-out: EHMT2 ICW (IC50 μM)
How it was run: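 Steps: compound added to plate, MDA-MB-231 cells plated in RPMI with 10% FBS, incubation for 48 h at 37 °C, fixation, overnight anti-H3K9me2 staining at 4 °C, and donkey anti-mouse 800CW with DRAQ5 counterstain. IC50 values come from percent inhibition fitted with a four-parameter model.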

Row | SMILES | IC50 [µM]
1 | CNc1cc(C)nc(Nc2ccc(OC)c(O[C@H]3C[C@@H](N(C)C)C3)c2)n1 (single isomer, unassigned) [Compound 317, N^2-(3-((1s,3s)-3-(dimethylamino)cyclobutoxy)-4-methoxyphenyl)-N^4,6-dimethylpyrimidine-2,4-diamine] | 1 to 10
2 | CNc1ccnc(Nc2ccc(OC)c(OC[C@@H]3CN(C)C[C@H]3C)c2)n1 (single isomer, unassigned) [Compound 438] | > 10
3 | CNc1ccnc(Nc2ccc(OC)c(OC[C@H]3CN(C)C[C@@H]3C)c2)n1 (single isomer, unassigned) [Compound 439] | 0.1 to 1
4 | CNc1ccnc(Nc2cccc(COCCN3CCCC3)n2)c1 [Compound 267, N^4-methyl-N^2-(6-((2-(pyrrolidin-1-yl)ethoxy)methyl)pyridin-2-yl)pyridine-2,4-diamine] | > 10
5 | CNc1cc(Nc2cccc(COCCN3CCCC3)n2)ccn1 [Compound 268, N^2-methyl-N^4-(6-((2-(pyrrolidin-1-yl)ethoxy)methyl)pyridin-2-yl)pyridine-2,4-diamine] | > 10
6 | CNc1nc(C2CCN(C)CC2)c2cc(OC)c(OCCCN3CCCC3)cc2n1 [Compound 270] | 0.1 to 1
7 | CNc1cc(Nc2ccc(OC)c(OCCCN3CCCC3)c2)ncc1F [Compound 272, 5-fluoro-N^2-(4-methoxy-3-(3-(pyrrolidin-1-yl)propoxy)phenyl)-N^4-methylpyridine-2,4-diamine] | 1 to 10
8 | CNc1cc(Nc2ccc(OC)c(OCCCN3CCCC3)c2)cc(C(F)(F)F)n1 [Compound 273] | > 10
9 | CNc1ccnc(Nc2cccc(OCC(F)CN3CCCC3)c2)n1 (stereo not drawn) [Compound 276, N^2-(3-(2-fluoro-3-(pyrrolidin-1-yl)propoxy)phenyl)-N^4-methylpyrimidine-2,4-diamine] | > 10
10 | CNc1ccnc(Nc2cccc(OCC(F)(F)CN3CCCC3)c2)n1 [Compound 277, N^2-(3-(2,2-difluoro-3-(pyrrolidin-1-yl)propoxy)phenyl)-N^4-methylpyrimidine-2,4-diamine] | > 10
11 | COc1ccc(Nc2nccc(NCC3CC(C)(C)NC(C)(C)C3)n2)cc1OCCCN1CCCC1 [Compound 278] | 1 to 10
12 | CCN(CC)CCCOc1cc(Nc2nccc(NC)n2)ccc1OC [Compound 280, N^2-(3-(3-(diethylamino)propoxy)-4-methoxyphenyl)-N^4-methylpyrimidine-2,4-diamine] | 1 to 10
13 | CNc1ccnc(Nc2ccc(OC)c(OCCCN3CCC4(COC4)C3)c2)n1 [Compound 284] | > 10
14 | CNc1ccnc(Nc2ccc(OC)c(OCCCN3CCC(C(F)(F)F)C3)c2)n1 (stereo not drawn) [Compound 285, N^2-(4-methoxy-3-(3-(3-(trifluoromethyl)pyrrolidin-1-yl)propoxy)phenyl)-N^4-methylpyrimidine-2,4-diamine] | > 10

The next lines start with the values.

Row | IC50 [µM] | SMILES
15 | > 10 | CNc1ccnc(Nc2ccc(OC)c(OCCCN3CC[C@H](F)C3)c2)n1 [Compound 271]
16 | > 10 | CNc1ccnc(Nc2cccc(N3CCC(N)C3=O)c2)n1 (stereo not drawn) [Compound 274]
17 | > 10 | CNc1ccnc(Nc2cccc(N3CCC(N(C)C)C3=O)c2)n1 (stereo not drawn) [Compound 275]
18 | > 10 | CNc1ccnc(Nc2cccc(C(C)OCCN3CCCC3)c2)n1 (stereo not drawn) [Compound 279, N^4-methyl-N^2-(3-(1-(2-(pyrrolidin-1-yl)ethoxy)ethyl)phenyl) pyrimidine-2,4-diamine]
19 | > 10 | CNc1ccnc(Nc2ccc(OC)c(OCCCN3CCC(S(C)(=O)=O)C3)c2)n1 (stereo not drawn) [Compound 282]
20 | 0.1 to 1 | CNc1ccnc(Nc2ccc(OC)c(OCCCN3CCC(OC)C3)c2)n1 (stereo not drawn) [Compound 283, N^2-(4-methoxy-3-(3-(3-methoxypyrrolidin-1-yl)propoxy)phenyl)-N^4-methylpyrimidine-2,4-diamine]
21 | 0.1 to 1 | CNc1ccnc(Nc2ccc(OC)c(OCCCN3CCC(O)C3)c2)n1 (stereo not drawn) [Compound 286, 1-(3-(2-methoxy-5-((4-(methylamino)pyrimidin-2-yl)amino)phenoxy)propyl)pyrrolidin-3-ol]
